# How the values were obtained:
# HTLV-III = assay: Anti-AIDS activity, infected cell rate of MT-4 cells infected with HTLV-III at 6th day; type: cell-based; settings: for anti-AIDS virus activity: MT-4 cells, HTLV-III
# Method: To MT-4 cells (30×10^4 /ml) cultured in RPMI-1640 medium containing 10% bovine serum, was inoculated HTLV-III, and the suspension was incubated at 37° C. for 1 hour to cause the adsorption of the virus. The cell:virus ratio was 500:1. The cells were then washed, and cultured with or without various doses of the test substances (same as those of Example 1) at 37° C. under 5% CO2 for 3 days, after which cell growth, viability, and percentage of infected cells were recorded. The infected cells were distinguished from the uninfected cells by indirect immuno-fluorescence method. Thus; the cultured cells were fixed with cold methanol on a slide glass, reacted with antibody to the HTLV-III-specific antigens, and further with the secondary antibody (having fluorescent label). The results are shown in FIGS. 9-29, wherein, , and show the controls without virus; , and show the infection experiments with HTLV-III. The cell growth is indicated in number of cells, the viability (%) in number of viable cells×100/number of total cells, and the infected cell rate (%) in number of fluorescent-positive cells×100/number of total cells.
# In order to examine the correlation between the anti-AIDS virus activity and the molecular structure (especially, molecular weight and S-content or number of sulfate group in this case) of various test substances including those used in Examples 1-7, the anti-AIDS activities were evaluated for the various naturally occurring polysaccharides, polysaccharides having sulfate group, mucopolysaccharides, mucopolysaccharide sulfate, and mucopolysaccharide polysulfate. Further, similar experiments were carried out with various other sulfates which were synthetically obtained. The experimental procedures employed are identical to that in preceding experiments. The cultured MT-4 cells were infected with HTLV-III and the inhibitory effects of various test subsutances on the infected cell rate (number of fluorescent cell×100/ total cell, %) were determined at 6th day.
# [1] = tested on: reverse transcriptase (authentic sample) derived from Avian Myeloblastosis Virus; assay: Inhibition of reverse transcriptase activity (AMV); type: biochemical; settings: AMV enzyme; 1, 0.1 and 0.01 μg/ml
# Method: Test substances were assayed for inhibition against the enzyme activity of reverse transcriptase (authentic sample) derived from Avian Myeloblastosis Virus (abbrev. AMV), a kind of retrovirus. Five microliters of […] (template RNA), 4 μl of (dT)12-18 (primer DNA), and 1 μl of water were mixed with 5 μl of 0.5M Tris-CHl (pH 8.4) including 0.1% triton X-100, 5 μl of […], 5 μl of 20 mM-DDT, 5 μl of water, and [^3 H]-TTP (tritium labeled thymidine triphosphate). To this mixture, test substances in solutions (final concentrations: 1, 0.1, and 0.01 μg/ml, 5 μl) or buffer solutions (control, 5 μl) at various doses were added. Then, 5 μl (one unit) of the authentic reverse transcriptase derived from AMV was added and the reaction mixture was incubated at 37° C. for 30 minutes. The reaction was stopped by addition of trichloroacetic acid, and after filtering the reaction mixture, the radioactivity of the polymerized (^3 H-T)n retained on the filter was measured using a liquid scintillation counter. As the test substances, sodium dextran sulfate (molecular weight: 5000), same (molecular weight: 8000), same (molecular weight: 500000), fucoidin, κ-carrageenan, λ-carrageenan, and .iota.-carrageenan were used.
# The effects of the test substances on the reverse transcriptase activity of AMV were evaluated by the method described in Example 1.
# [2] = Acute toxicity (LD50) in mice; type: in vivo
# MT-4 cells = assay: Cytotoxicity, proliferation and viability of MT-4 cells without virus; type: cell-based, human; settings: no virus
# Method: MT-4 cells were cultured with or without 1-100 μg/ml of each test substance which is the same as in Example 1 and 3 and the proliferation and viability of cells were recorded.
# Without the virus, MT-4 cells were cultured in the same manner as in Example 4 except the test sample was heparin, and proliferation and viability of cells were recorded.
# [3] = tested on: Friend leukemia virus (F-MuLV); assay: Anti-Friend leukemia virus activity, XC-plaque assay, Procedure 1; type: cell-based; settings: for Number of plagues per dish: control 168
# Method: (§1) Anti-FMuLV activity of dextram sulfate (molecular weight: 7000-8000, S-content: 17-20%) was determined by a XC-plaque assay method. BALB3T3 cells were cultured in adhesive form in a 35 mm-dish at 5×10^4 cells/dish (2 ml). After removing the culture medium, a fresh medium with or without indicating concentrations of the test substance (1 ml each) and 0.2 ml of the virus preparation were charged, and the cells were cultured overnight. On the following day, the culture media were replaced with those (2 ml) containing or not containing the above substances, the incubation was continued for three additional days to progress the infection and replication of the virus. After the removal of the medium, the further progression of viral replication was stopped by UV irradiation. To this dish, the suspension of XC-cells (2 ml) was added and cultured for three days and the plaque formation produced by the virus particle induced cell-fusion, was observed.
# [4] = tested on: Friend leukemia virus (F-MuLV); assay: Anti-Friend leukemia virus activity, XC-plaque assay, Procedure 2; type: cell-based; settings: for Number of plaques per dish: control 35
# Method: as §1
# Procedure 1 was repeated except that after adsorption of the virus in the medium without DS, the non-adsorbed viruses were removed and the culture was carried out in the medium (2 ml) containing or not containing DS.
# [5] = 10 μg/ml, 6th day, control 100%, 8640 min
# [6] = 100 μg/ml, 6th day, control 100%, 8640 min
# [7] = 1000 μg/ml, 6th day, control 100%
# [8] = 10 μg/ml, 6th day, control 100%
# [9] = 100 μg/ml, 6th day, control 100%
compound,measurement,setting,value
"Dextran sulfate [Dextran sulfate (molecular weight 3,500, S-content 6)]",Infected cell (%),HTLV-III; [5],100%
same,Infected cell (%),HTLV-III; [6],82%
same,Infected cell (%),HTLV-III; [7],1%
OC[C@H]1O[C@H](OC[C@H]2O[C@H](O[C@]3(CO)O[C@H](CO)[C@@H](O)[C@@H]3O)[C@H](O)[C@@H](O)[C@@H]2O)[C@H](O)[C@@H](O)[C@H]1O [raffinose],anti-AIDS virus activity,HTLV-III; 6th day,neither methylcellulose showed any anti-AIDS virus activities
inulin,anti-AIDS virus activity,HTLV-III; 6th day,neither methylcellulose showed any anti-AIDS virus activities
methylcellulose,anti-AIDS virus activity,HTLV-III; 6th day,neither methylcellulose showed any anti-AIDS virus activities
Chitin,Infected cell (%),HTLV-III; [8],100%
same,Infected cell (%),HTLV-III; [9],100%
Chondroitin,Infected cell (%),HTLV-III; [8],100%
same,Infected cell (%),HTLV-III; [9],100%
Heparitin sulfate,Infected cell (%),HTLV-III; [8],100%
same,Infected cell (%),HTLV-III; [9],90%
Dermatan sulfate,Infected cell (%),HTLV-III; [8],100%
same,Infected cell (%),HTLV-III; [9],80%
colominic acid,anti-AIDS virus activity,HTLV-III; 6th day,neither methylcellulose showed any anti-AIDS virus activities
keratan polysulfate,reverse transcriptase inhibition activity,[1],stronger activity than the natural substances
"Dextran [Dextran (molecular weight 9,000)]",Infected cell (%),HTLV-III; [8],100%
same,Infected cell (%),HTLV-III; [9],100%
"Sodium dextran sulfate [Sodium dextran sulfate (molecular weight: 500,000 S-content:]",Infected cell (%),"HTLV-III; 10 μg/ml, 6th day; control 100%; S-content ≈16), 8640 min",20%
same,Infected cell (%),HTLV-III; [9],0%
Glucose-polysulfate,Infected cell (%),HTLV-III; [8],100%
same,Infected cell (%),HTLV-III; [9],100%
same,Infected cell (%),HTLV-III; [7],100%
Hyaluronic acid sulfate,Infected cell (%),HTLV-III; [8],100%
same,Infected cell (%),HTLV-III; [9],70%
"Dextran sulfate [Dextran sulfate (molecular weight 8,000, S-content ≈14)]",Infected cell (%),HTLV-III; [5],25%
same,Infected cell (%),HTLV-III; [6],0%
Alginic acid,Infected cell (%),HTLV-III; [8],100%
same,Infected cell (%),HTLV-III; [9],100%
Chitosan,Infected cell (%),HTLV-III; [8],100%
same,Infected cell (%),HTLV-III; [9],100%
κ-carrageenan [Carrageenan 20%enan 80% + λ],Infected cell (%),HTLV-III; [8],95%
same,Infected cell (%),HTLV-III; [9],1%
O=C[C@H](O)[C@@H](O)[C@H](O)[C@H](O)COS(=O)(=O)O [Glucose-6-sulfate],Infected cell rate (% of total cells) at 10 µg/mL,"HTLV-III; Human immunodeficiency virus 1, MT4, 144 h, 10 μg/ml, 6th day, control 100%",100%
same,Infected cell rate (% of total cells) at 100 µg/mL,"HTLV-III; Human immunodeficiency virus 1, MT4, 144 h, 100 μg/ml, 6th day, control 100%",100%
same,Infected cell rate (% of total cells) at 1000 µg/mL,"HTLV-III; Human immunodeficiency virus 1, MT4, 144 h, 1000 μg/ml, 6th day, control 100%",100%
λ-Carrageenan,Infected cell (%),HTLV-III; [8],3%
same,Infected cell (%),HTLV-III; [9],1%
same,anti-AIDS virus activity,HTLV-III; 6th day,particularly strong anti-AIDS virus activities
sodium chondroitin sulfate,acute toxicity (LD50),[2]; intraperitoneally,"≥ 4,000 mg/kg"
same,acute toxicity (LD50),[2]; orally,"≥ 7,500 mg/kg"
pectin,anti-AIDS virus activity,HTLV-III; 6th day,neither methylcellulose showed any anti-AIDS virus activities
Chondroitin-6-sulfate,Infected cell (%),HTLV-III; [8],100%
same,Infected cell (%),HTLV-III; [9],100%
Chondroitin-4-sulfate polysulfate,Infected cell (%),HTLV-III; [8],2%
same,Infected cell (%),HTLV-III; [9],1%
same,anti-AIDS virus activity,HTLV-III; 6th day,particularly strong anti-AIDS virus activities
Chondroitin-6-sulfate polysulfate,Infected cell (%),HTLV-III; [8],2%
same,Infected cell (%),HTLV-III; [9],1%
same,anti-AIDS virus activity,HTLV-III; 6th day,particularly strong anti-AIDS virus activities
Chondroitin-4-sulfate,Infected cell (%),HTLV-III; [8],90%
same,Infected cell (%),HTLV-III; [9],80%
Fucoidin,Infected cell (%),HTLV-III; [8],32%
same,Infected cell (%),HTLV-III; [9],1%
.iota.-Carrageenan,Infected cell (%),HTLV-III; [8],100%
same,Infected cell (%),HTLV-III; [9],31%
"Sodium dextran sulfate [Sodium dextran sulfate (molecular weight: 5000, S-content: 1]",Infected cell (%),"HTLV-III; 10 μg/ml, 6th day; control 100%; S-content ≈13), 8640 min",18%
same,Infected cell (%),HTLV-III; [9],0%
same,Cell number,MT-4 cells; 1 μg/ml,123 × 10^4 cells/ml
same,Cell number,MT-4 cells; 10 μg/ml,127 × 10^4 cells/ml
same,Viability,MT-4 cells; 10 μg/ml,92%
same,Cell number,MT-4 cells; 100 μg/ml,121 × 10^4 cells/ml
same,Viability,MT-4 cells; 100 μg/ml,93%
Chitin sulfate,Infected cell (%),HTLV-III; [8],100%
same,Infected cell (%),HTLV-III; [9],81%
Hyaluronic acid,Infected cell (%),HTLV-III; [8],100%
same,Infected cell (%),HTLV-III; [9],100%
Alginic acid sulfate,Infected cell (%),HTLV-III; [8],7%
same,Infected cell (%),HTLV-III; [9],4%
same,anti-AIDS virus activity,HTLV-III; 6th day,particularly strong anti-AIDS virus activities
Chitosan sulfate,Infected cell (%),HTLV-III; [8],1%
same,Infected cell (%),HTLV-III; [9],1%
same,anti-AIDS virus activity,HTLV-III; 6th day,particularly strong anti-AIDS virus activities
dextran sulfate,anti-AIDS virus activity,HTLV-III; 6th day,particularly strong anti-AIDS virus activities
Sodium dextran sulfate,plaque formation,[3]; 100 μg/ml of DS,not detected
same,inhibition of the formation of plaque,[3]; 1-100 μg/ml,≥ 90%
same,Inhibition,[3]; DS 1 μg/ml,92%
same,Number of plagues per dish,[3]; DS 1 μg/ml,14
same,Inhibition,[3]; DS 5 μg/ml,93%
same,Number of plagues per dish,[3]; DS 5 μg/ml,12
same,Inhibition,[3]; DS 10 μg/ml,93%
same,Number of plagues per dish,[3]; DS 10 μg/ml,11
same,Inhibition,[3]; DS 50 μg/ml,92%
same,Number of plagues per dish,[3]; DS 50 μg/ml,13
same,Inhibition,[3]; DS 100 μg/ml,96%
same,Number of plagues per dish,[3]; DS 100 μg/ml,6
same,Inhibition,[3]; DS 1000 μg/ml,100%
same,Number of plagues per dish,[3]; DS 1000 μg/ml,0
same,Inhibition,[4]; DS 0.01 μg/ml,6%
same,Number of plaques per dish,[4]; DS 0.01 μg/ml,33
same,Inhibition,[4]; DS 0.1 μg/ml,45%
same,Number of plaques per dish,[4]; DS 0.1 μg/ml,19
same,Number of plaques per dish,[4]; DS 1 μg/ml,14
same,Inhibition,[4]; DS 10 μg/ml,52%
same,Number of plaques per dish,[4]; DS 10 μg/ml,17
same,Inhibition,[4]; DS 100 μg/ml,54%
same,Number of plaques per dish,[4]; DS 100 μg/ml,16
same,Number of plaques per dish,[4]; DS 500 μg/ml,0
Agarose,Infected cell (%),HTLV-III; [8],100%
same,Infected cell (%),HTLV-III; [9],100%
N--acetylglucosamine polysulfate,Infected cell (%),HTLV-III; [8],100%
same,Infected cell (%),HTLV-III; [9],100%
same,Infected cell (%),HTLV-III; [7],100%
Keratan sulfate,Infected cell (%),HTLV-III; [8],100%
same,Infected cell (%),HTLV-III; [9],60%

# Source: US4840941A, “Method for inhibiting infection of human T-cells” (Kabushiki Kaisha Ueno Seiyaku Oyo Kenkyujo, priority 1986, dated 1989)
